Earlier results in patent US20070092539A1 (priority 2003, published 2007).

Experiments:
rates with arthritis = conditions: experimental models on rates with arthritis, compared with other AINEs

solubility in methanol (methanol): slightly soluble in methanol | solubility in water (water): practically insoluble in water
Compound: Cc1cnc(NC(=O)C2=C(O)c3ccccc3S(=O)(=O)N2C)s1 [meloxicam, 4-hydroxy-2-methyl-N-(5-methyl-2-thiazolyl)-2H-1,2-benzotiazine-3-carboxamide-1,1-dioxide]
therapeutic margin (ulcerogenic vs anti-inflammatory doses) (rates with arthritis): superior therapeutic margin over the other AINEs
